Test results published in paper PMC9272937, “Anti-breast cancer sinomenine derivatives via mechanisms of apoptosis induction and metastasis reduction” (Journal of Enzyme Inhibition and Medicinal Chemistry, 2022).

What was measured:
[1] = system: MDA-MB-231 cells; test: Comet assay (DNA damage); assay type: cell-based, human; conditions: 0.41, 0.82, 1.64 μM, 72 h, MDA-MB-231, neutral comet assay
Protocol: All DNA damage sustained in this assay was measured via Comet Assay Kit (Keygen, Nanjing, China) according to the manufacturer’s instructions. 7Cc was added to MDA-MB-231 cells at predetermined concentrations (0, 0.41, 0.82, 1.64 μM) for 72 h. These cells were then collected and fixed on CometSlide at 4 °C for 15 min. After that, the cells were set under lysis solution at 4 °C for 90 min and these slides were electrophoresed for 20 min, fixed in ethanol for 5 min, and then stained with Vista Green DNA Dye. The final results were acquired by a fluorescence microscope.

[2] = system: MDA-MB-231 cells; test: Transwell assay; assay type: cell-based, human; conditions: 0.41, 0.82, 1.64 μM, 24 h, concentration-dependent
Protocol: Then, cells attached to the upper surface of the membrane were removed while migrated or invaded cells of the lower membrane surface were added 0.1% crystal violet staining for 30 min. Then, migrated or invaded cells of the lower chamber were photographed and counted.

[3] = system: MDA-MB-231 cells; test: Adhesion assay; assay type: cell-based, human; conditions: 0.41, 0.82, 1.64 μM, 72 h, dose-dependent
Protocol: MDA-MB-231 cells were incubated in different plates and then treated with 7Cc in different concentrations (0, 0.41, 0.82, 1.64 μM) for 72 h. After that, the CAM ([…]) stain treated serum-free medium was applied and 96-well plates were seeded with 100 μL already prepared cell suspension at 2,000 cells per good concentration for an hour. Then, plates were washed by PBS, fixed via 3.7% formaldehyde, another PBS wash, and photographed by fluorescence microscope.

[4] = system: MDA-MB-231 cells; test: Cell cycle analysis (PI staining, flow cytometry); assay type: cell-based, human; conditions: 72 h; for share of S phase in cell cycle: control 45.39%
Protocol: This assay was conducted on 6-well plates with 200,000 MDA-MB-231 cells per well and incubated for 24 h at 37 °C with 5% CO2, then the medium from each well was removed and treated by 7Cc in different concentrations (0, 0.41, 0.82, 1.64 μM) for additional 72 h incubation. The desired cell suspension was acquired after attached cells were digested then collected and washed in terms. Cell suspension was then subjected to fixation via 70% ethanol and washed with phosphate-buffered solution (PBS), incubated with 100 μL Rnase A, and placed on water bathed for half an hour at 37 °C. For the final step, 400 μL PI was applied to the mixture in a dark environment at 4 °C for 30 min. Then the distribution of DNA content was measured by flow cytometry (FACS Calibur Becton-Dickinson, Franklin Lake, NJ).

[5] = system: human lung cancer cell line A549; test: CCK-8 antiproliferative assay, A549; assay type: cell-based; conditions: Homo sapiens, A549; CCK-8, 48 h, mean ± SD of three experiments
Protocol: (§1) The antiproliferative activities of target compounds were examined by CCK-8 assay in three cancer cells (human lung cancer cell line A549, human mammary gland tumour cell line MCF-7 and human TNBC cell line MDA-MB-231) and one normal cell (human normal breast cell line MCF10A). All cell lines were sourced from KeyGEN Biotech, […], China, and a standard DMEM medium was applied to all cell cultures then subjected to 24 h incubation at 37 °C in a humidified environment with 5% CO2. After that logarithmic growing cells were plated on 96-well plates with 8,000 cells per well in a […] medium for 24 h incubation at 37 °C with 5% CO2. The DMEM medium with bovine serum was removed from each well. Then, prerequisite target compounds and positive controls were added to different cell lines in a predetermined concentration regiment for 48 h culture.

[6] = system: MDA-MB-231 cells; test: Mitochondrial membrane potential assay (JC-1, flow cytometry); assay type: cell-based, human; conditions: 48 h, control 3.67%
Protocol: Briefly, MDA-MB-231 cells in logarithmic growth were placed in 6-well plates with 200,000 cells per well for 24 h before a medium remove and then incubated with 7Cc at predetermined concentrations (0, 0.41, 0.82, 1.64 μM) for 48 h. Cells were collected after and washed with PBS. JC-1 dye was added to cells for staining under total dark conditions according to the manufacturer's instructions (KGA601, KeyGEN Biotech, Nanjing, China). The percentage of cells with collapsed mitochondrial membrane potentials was detected by flow cytometry.

[7] = system: human mammary gland tumour cell line MCF-7; test: CCK-8 antiproliferative assay, MCF-7; assay type: cell-based
Protocol: as §1

[8] = system: MDA-MB-231 cells; test: Cell apoptosis assay (annexin V-FITC/PI, flow cytometry); assay type: cell-based, human; conditions: 72 h, negative control 5.98%
Protocol: This assay was performed on 6-well plates with 200,000 MDA-MB-231 cells per well and incubated for 24 h at 37 °C with 5% CO2, then the medium from each well was removed and treated by 7Cc in different concentrations (0, 0.41, 0.82, 1.64 μM) for additional 72 h incubation. Subsequently, 500 μL of binding buffer was applied to suspend and collect compound treated cells. Then, 5 μL of both annexin V-fluorescein isothiocyanate (Annexin V-FITC) and propidium iodide (PI) was applied to the mixture and this reaction was placed under total dark at room temperature for 10 min. Cell apoptosis was examined by flow cytometry.

[9] = system: human normal breast cell line MCF10A; test: CCK-8 assay, normal cells MCF10A; assay type: cell-based; conditions: MCF-10A, CCK-8, 48 h, mean ± SD of three experiments
Protocol: as §1

[10] = system: human TNBC cell line MDA-MB-231; test: CCK-8 antiproliferative assay, MDA-MB-231; assay type: cell-based
Protocol: as §1

[11] = system: MDA-MB-231 cells; test: Wound healing assay; assay type: cell-based, human; conditions: 0.41, 0.82, 1.64 μM, 24 h
Protocol: In this assay, 6-well plates with 200,000 cells per well were used for the culture of MDA-MB-231 cells at 37 °C for 24 h and the medium of each well was removed. Then, 7Cc at predetermined concentrations (0, 0.41, 0.82, 1.64 μM) was added to the cell culture for incubation. After that, sterile pipette tips were utilised to scratch cell culture in 6-well plates in an even fashion, and detached cells were washed away by PBS with culture medium replaced anew afterward. After 24 h of additional incubation, cell cultures were photographed and migration distance examined accurately.

[12] = Griess assay, NO-releasing capacity; conditions: 10^−4 mol/l compound, L-cysteine, 37 °C
Protocol: The NO-releasing capacity of each target compound was determined by the colorimetric method under the instructions of the manufacturer. Preparation of standard curves of 0, 1.56, 3.13, 6.25, 12.5, 25, 50 and 100 μmol/L nitrite nitrogen series standard solution was prepared. 50 μL to 96-well plate was added respectively and then mixed with 50 μL Griess I and Griess II; the absorption value was measured at 540 nm wavelength. A standard curve was drawn from the obtained data. Compounds were formulated into 10^−4 mol/l with PBS (pH = 7.4) and pharmaceutical DMSO. The newly formulated L-cysteine solution 100 μL ([…]) was added and incubated at 37 °C for 15, 30, 45, 60, 90, 120, 150 and180 min, respectively. Griess I and II recovered to room temperature, 50 μL of compounds 7A–E(a–c) were added respectively into the 96-well plate, and then 50 μL of Griess I and 50 μL of Griess II were added in sequence, with the absorbance tested at 540 nm. The amount of NO released was then calculated according to the standard curve.

COC1=CC2[C@H]3Cc4ccc(OC)c(OC(=O)c5ccccc5C(=O)OCCCCOc5no[n+]([O-])c5S(=O)(=O)c5ccccc5)c4[C@@]2(CCN3C)CC1=O (stereo partly drawn) [7Cc, 4–(4-((2-((((4bs,9R)-3,7-Dimethoxy-11-methyl-6-oxo-6,8a,9,10-tetrahydro-5H-9,4b-(epiminoethano)phenanthren-4-yl)oxy)carbonyl)benzoyl)oxy)butoxy)-3-(phenylsulfonyl)-1,2,5-oxadiazole 2-oxide]
DNA damage (double-strand DNA breaks, comet tail) [1]: significant presence of endogenous DSBs was observed
invasion (cells permeated through transwell membrane) [2]: notably reduced the number of cells permeated through the membrane
cellular adhesion [3]: clear prevention of TNBC cellular adhesion
share of S phase in cell cycle ([4]; 0.41 μM): 49.10%
share of S phase in cell cycle ([4]; 0.82 μM): 57.27%
share of G2 phase in cell cycle ([4]; 1.64 μM, control 10.09%): 5.76%
share of G1 phase in cell cycle ([4]; 1.64 μM, control 44.52%): 30.09%
share of S phase in cell cycle ([4]; 1.64 μM): 64.15%
IC50 [5]: 1.94 ± 0.05 µM
percentage of cells with collapsed mitochondrial membrane potential (JC-1) ([6]; 0.41 μM): 16.40%
percentage of cells with collapsed mitochondrial membrane potential (JC-1) ([6]; 0.82 μM): 31.01%
percentage of cells with collapsed mitochondrial membrane potential (JC-1) ([6]; 1.64 μM): 49.98%
IC50 ([7]; Homo sapiens, MCF7, 48 h, read-out: IC50 MCF-7): 1.75 ± 0.15 µM
SI MCF-7 (selectivity index) ([7]; SI = IC50(MCF-10A)/IC50(MCF-7)): 15.73
apoptotic portions of cells (two quadrants from the right side) ([8]; 0.41 μM): 16.66%
apoptotic portions of cells (two quadrants from the right side) ([8]; 0.82 μM): 26.62%
apoptotic portions of cells (two quadrants from the right side) ([8]; 1.64 μM): 53.28%
IC50 [9]: 27.5 ± 2.34 µM
IC50 ([10]; Homo sapiens, MDA-MB-231, 48 h, read-out: IC50 MDA-MB-231): 0.82 ± 0.02 µM
SI MDA-MB-231 (selectivity index) ([10]; SI = IC50(MCF-10A)/IC50(MDA-MB-231)): 33.57
migration (wound closure) [11]: inhibited migration
time at which top volume of NO released was reached [12]: 90 min
NO release at 180 min ([12]; 180 min): 39.27 µmol/L
